Laboratory results published in patent US9107879B1, “Methods of increasing the cytotoxicity of chemotherapeutic agents with multisubstrate inhibitors of histone, protein-lys, polyamine acetylation, and polyamine metabolism” (Vanderbilt University, priority 2010, dated 2015).
pIC50, pKi: −log10 of the molar value.

Columns and labels:
[1] = target: T1, recombinant p300 (1284-1660) (Homo sapiens, UniProt Q09472); assay: p300 HAT solution assay, H4 peptide substrate, DTNB detection; format: biochemical
T1 construct: p300 protein (residues 1284-1660); made in house
T1 sequence (Q09472 1284-1660): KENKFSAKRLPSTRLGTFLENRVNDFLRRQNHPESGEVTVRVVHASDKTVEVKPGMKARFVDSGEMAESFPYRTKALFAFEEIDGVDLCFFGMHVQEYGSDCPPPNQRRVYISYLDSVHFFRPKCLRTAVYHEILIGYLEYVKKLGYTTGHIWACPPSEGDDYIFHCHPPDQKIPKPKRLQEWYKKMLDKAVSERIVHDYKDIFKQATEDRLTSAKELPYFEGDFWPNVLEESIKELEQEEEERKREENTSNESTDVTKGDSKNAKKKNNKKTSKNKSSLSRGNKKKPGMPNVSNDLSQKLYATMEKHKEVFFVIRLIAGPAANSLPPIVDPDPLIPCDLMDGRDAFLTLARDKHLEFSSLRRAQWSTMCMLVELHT
Method: (A) Structures of compound 1a (spermidine CoA), and the acetylated side chain of a lysine residue of a polypeptide chain. (B) Inhibition of p300 acetylating activity as a function of 1a concentration. The catalytic domain of recombinant p300 (1284-1660) was assayed under steady state conditions using an N-terminal acetylated histone H4 peptide substrate, Ac-H4(1-19)-NH2. Closed circles represent experimental data points; plain line represents theoretical profile based on data reduction software (Prism) using a one site inhibition model. (C) In vitro assay of p300 activity using a 96-well assay kit (ActivMotif) and an H3 peptide substrate (5-23), according to manufacturer's instructions. Bars represent average of duplicates. BK=background (no enzyme); C=control (no inhibitor); [1a]=50 μM.
Assays were performed using the fluorescent HAT assay kit (Active Motif, Carlsbad, Calif.), an H3 peptide as substrate (residues 5-23), the p300 catalytic domain as enzyme, and 50 μM inhibitor in duplicate, according to the manufacturer's instructions. […] The reaction product, CoASH, was detected spectrophotometrically by reaction with 5,5′-dithiobis-2-nitrobenzoic acid (DTNB). Assays were carried out at 30° C. for 30 minutes, conditions which had previously been determined in kinetic assays to sufficient to achieve steady state. […]

[2] = tested on: H358 cells; assay: trypan blue exclusion viability assay; format: cell-based; details: human
Method: Cells were either labeled immediately before treatment (starting DNA synthesis rate), or subjected to the indicated treatments and then pulsed on successive days until day 4. DNA synthesis is represented as the percent of starting DNA synthesis rate. Viability was determined for each treatment condition 24 hours post-start of treatment by the trypan blue exclusion assay, with percentages of viable cells indicated to the right of the graph. […]
Cell viability, measured 18 hours after the start of each treatment by the trypan blue exclusion assay, a measure of cellular membrane integrity, confirmed that single agent treatment with either 1a or camptothecin had essentially no effect on cell viability (≧96% viability for untreated cells or single agent-treated cells).
The present inventors used 96-well viability assays as described in Saadatmandi et al (Cancer Gene Therapy (2002) 9:930-9) to examine the effect of 1a on DNA synthesis in H358 cells, as well as the combined effects of 1a and chemotherapeutic agents. […] Following the 6-hour labeling, cells were harvested and incorporation of [^3H]-thymidine was determined by scintillation counting. […] We measured cell viability 24 hours after the start of each treatment by the trypan blue exclusions assay, a measure of cellular membrane breakdown.

pKi ([1]; from IC50=Ki(1+Km/S)≅Ki under substrate excess, read-out: estimated Ki for p300 fragment): 4.00 to 4.30
pIC50 ([1]; histone H4 N-terminal peptide substrate, inferred from inhibitory plot, one site model, read-out: IC50, p300HAT catalytic subunit activity): 4.00 to 4.30
Structure (SMILES): CC(C)(COP(=O)(O)OP(=O)(O)OC[C@H]1O[C@@H](n2cnc3c(N)ncnc32)[C@H](O)[C@@H]1OP(=O)(O)O)[C@@H](O)C(=O)NCCC(=O)NCCSCC(=O)NCCCNCCCCN [1a, spermidine[N1]-CoA]
cell viability, trypan blue exclusion ([2]; 18 h): ≥ 96%
cell viability, trypan blue exclusion ([2]; 24 h): ≥ 96%
